Laboratory results: patent US5891864A, “Anti-cancer compositions” (Han; Yung Bok, priority 1995, dated 1999)

Tests used:
Ehrlich solid tumor = test: Comparative test for inhibition of Ehrlich solid tumor proliferation; assay type: in vivo, mouse; conditions: An 15, Gh 15, AG60 30 mg/kg; for size of cancer tissue (solid tumor proliferation): i.m. once a day
Protocol: Comparative test for inhibition of Ehrlich solid tumor proliferation with acriflavine neutral(An), guanosine hydrate(Gh) and the composition(AG60) of the present invention
Normal 20 ICR mice(.male., 20±1 g) were divided into 4 groups such that each group included 5 mice. Ehrlich cancer cells were transplanted into the inguinal area of all experimental animals in an amount of 1×10^7 cells per animal. After 24 hours, the control group A received physiological saline in an amount of 10 ml/kg by intramuscular injection, once a day, for 15 days. As the comparative groups, the groups B and C received acriflavine neutral(An) in an amount of 15 mg/kg and guanosine hydrate(Gh) in an amount of 15 mg/kg, respectively, in the same manner as the control group. To the group D the composition (AG60) of the present invention was administered in an amount of 30 mg/kg in the same manner as the control group. During 15 days after the transplantation of cancer cells the proliferation of solid tumor in each group was observed.
The effects on the solid tumor proliferation of the composition(AG60) of the present invention, acriflavine neutral(An) and guanosine hydrate(Gh) were determined by measuring the size of cancer tissues in control group A, the acriflavine neutral group B, the guanosine hydrate group C and the present composition(AG60) group D from the fifth day to the fifteenth day after the transplantation of cancer cells at an interval of 2 days, and are presented in Table 3 and FIG. 5. […] In group D to which the composition(AG60) of the present invention was administered, the size of cancer tissue was measured as 1.5 mm after 5 days from transplantation and, thereafter, increased 0.35 mm every 2 days.

[1] = test system: human hepatoma cells SK-HEP-1; test: MTT in vitro test, cell survival rate of human hepatoma cell line SK-HEP-1; assay type: cell-based
Protocol: (§1) In vitro test for the effect of the composition (AG60) of the present invention on mouse lung cancer cells 3LL and human hepatoma cells SK-HEP-1
(§2) Cancer cells used for this test include human hepatoma cell line SK-HEP-1 and mouse lung cancer cell line 3LL, as recommended by the U.S. NCI(National Cancer Institute).
(§3) These cell lines were incubated in the culture media prepared by adding 10% inactivated FBS(fetal bovine serum), 100 μg/ml of streptomycin and 100 units/ml of penicillin to RPMI 1640 medium, at 37° C. in an incubator(Heraus) under 5% CO2 and 100% humidity. […] After 2 days, the survival rate of cells was calculated by carrying out MTT method using determination of dehydrogenase enzyme in cellular mitochondria and measuring the absorbance at 540 nm by means of a spectrophotometer (ELISA reader), to determine the anti-cancer activity of the composition according to the present invention against respective cancer cells. MTT test is a method in which formazan precipitate formed by reduction of MTT with cellular mitochondria dehydrogenase in living cells is dissolved and then the absorbance is measured. Thus, since in vigorously dividing cancer cells the enzyme is fully active, by the action of enzyme MTT is reduced to form the precipitate which can be dissolved to determine the absorbance, thereby identifying the survival rate of respective cells. […]

[2] = test system: mouse lung cancer cells 3LL; test: MTT in vitro test, cell survival rate of mouse lung cancer cell line 3LL; assay type: cell-based
Protocol: as §1, §2, §3

[3] = cold / warm water; cited from earlier work

Row | SMILES | size of cancer tissue (solid tumor proliferation) (Ehrlich solid tumor; day 5) [mm] | size of cancer tissue (solid tumor proliferation) (Ehrlich solid tumor; day 7) [mm] | size of cancer tissue (solid tumor proliferation) (Ehrlich solid tumor; day 9) [mm] | size of cancer tissue (solid tumor proliferation) (Ehrlich solid tumor; day 11) [mm] | size of cancer tissue (solid tumor proliferation) (Ehrlich solid tumor; day 13) [mm] | size of cancer tissue (solid tumor proliferation) (Ehrlich solid tumor; day 15) [mm] | inhibition of solid tumor proliferation in words (Ehrlich solid tumor; i.m. once a day for 15 days) | IC50 ([1]; Homo sapiens, SK-HEP1, 48 h, read-out: ID value (survival rate of cells)) [µg/mL] | cytotoxicity / anti-cancer activity in words ([1]; SK-HEP-1 cells) | cytotoxicity / anti-cancer activity in words ([2]; 3LL cells) | IC50 ([2]; Mus musculus, 3LL, 48 h, read-out: ID value (survival rate of cells)) [µg/mL] | solubility in water [3]
1 | Nc1nc2c(ncn2[C@@H]2O[C@H](CO)[C@@H](O)[C@H]2O)c(=O)[nH]1.O [Guanosine hydrate] | 4.7 | 6.8 | 8.5 | 12.3 | 14.5 | 18.2 | showed the similar proliferation pattern to each other | 1530 | did not show any anti-cancer activity | did not show any anti-cancer activity | 1520 | 
2 | Nc1nc2c(ncn2[C@@H]2O[C@H](CO)[C@@H](O)[C@H]2O)c(=O)[nH]1 [Guanosine, 2-amino-9-β-D-ribofuranosyl-9H-purin-6-(1H)-one] |  |  |  |  |  |  |  |  |  |  |  | slighly soluble in cold water but soluble in warm water
